# Earlier results as cited in patent US20140140997A1, “Methods of Treating Retroviral Infections in Felines” (CytoDyn Inc., priority 2011, published 2014).
# Assays:
# LFA-1 = details: Wang et al. 2009; Almog 2003
# CD11a binding to ICAM-1 = details: Weitz-Schmidt et al. 2004; Welzenbach et al. 2002
SMILES,inhibition of LFA-1 activation (LFA-1),prevention of CD11a binding to ICAM-1 (CD11a binding to ICAM-1)
"CC[C@H](C)C(=O)O[C@H]1C[C@@H](C)C=C2C=C[C@H](C)[C@H](CC[C@@H]3C[C@@H](O)CC(=O)O3)[C@H]21 [Lovastatin, (1S,3R,7S,8S,8aR)-8-{2-[(2R,4R)-4-hydroxy-6-oxooxan-2-yl]ethyl}-3,7-dimethyl-1,2,3,7,8,8a-hexahydronaphthalen-1-yl (2S)-2-methylbutanoate]",inhibit LFA-1 activation,–
CC[C@H](C)C(=O)O[C@H]1C[C@@H](C)C=C2C=C[C@H](C)[C@H](CC[C@@H]3C[C@H](CC(=O)NC)N(Cc4ccc(O)c(OC)c4)C(=O)O3)[C@H]21 [LFA878],–,preventing the ability of CD11a to bind to ICAM-1
"CCC(C)(C)C(=O)O[C@H]1C[C@@H](C)C=C2C=C[C@H](C)[C@H](CC[C@@H]3C[C@@H](O)CC(=O)O3)[C@H]21 [simvastatin, (1S,3R,7S,8S,8aR)-8-(2-((2R,4R)-4-hydroxy-6-oxotetrahydro-2H-pyran-2-yl)ethyl)-3,7-dimethyl-1,2,3,7,8,8a-hexahydronaphthalen-1-yl 2,2-dimethylbutanoate]",inhibit LFA-1 activation,–
O=C(NCc1cccc(O)c1)c1cc(Cl)c(C(=O)N[C@@H](CNC(=O)c2cc(O)cc(O)c2)C(=O)O)c(Cl)c1 [XVA143],–,preventing the ability of CD11a to bind to ICAM-1
